Data on 11 compounds can be found in patent publication US10047084B2, “Imidazolone derivatives, pharmaceutical compositions and uses thereof” (BEIJING FORELANDPHARMA CO. LTD., priority 2013, dated 2018).

The target of assay [1] is mTOR kinase (Homo sapiens (Human), UniProt P42345). Description: mTOR kinase activity assay (TR-FRET, GFP-4EBP1 substrate). It counts as biochemical. To be noted: read-out: Enzyme (mTOR) IC50. Here is the method: 1. mTOR Kinase Activity Assay: The inhibition of the mTOR protein kinase activity by the compounds was determined by the enzymatic activity assay in vitro. The detection kit supplied by Invitrogen was used to detect the inhibition of the activity of the mTOR […]. The principle of the assay was as follows: mTOR kinase, fluorescein-labeled substrate and ATP were mixed, and after the reaction, EDTA and terbium-labeled first antibody were added. During the chemical reaction process of the mTOR kinase, the antibody recognized the phosphorylated and fluorescein-labeled substrate, and then the “time-resolved fluorescence resonance energy transfer” (TR-FRET) effect was enhanced. TR-FRET effect was calculated as the ratio of signals from the acceptor fluorescein to signals from the donor terbium. The amount of the antibody bound to the tracer was directly proportional to the amount of the phosphorylated substrate after the reaction. In this way, the kinase activity can be detected. In this assay, the substrate of the mTOR kinase was green fluorescent protein-coupled 4E binding protein 1 (GFP-4EBP1).
Sequence of mTOR kinase (P42345 1360-2549): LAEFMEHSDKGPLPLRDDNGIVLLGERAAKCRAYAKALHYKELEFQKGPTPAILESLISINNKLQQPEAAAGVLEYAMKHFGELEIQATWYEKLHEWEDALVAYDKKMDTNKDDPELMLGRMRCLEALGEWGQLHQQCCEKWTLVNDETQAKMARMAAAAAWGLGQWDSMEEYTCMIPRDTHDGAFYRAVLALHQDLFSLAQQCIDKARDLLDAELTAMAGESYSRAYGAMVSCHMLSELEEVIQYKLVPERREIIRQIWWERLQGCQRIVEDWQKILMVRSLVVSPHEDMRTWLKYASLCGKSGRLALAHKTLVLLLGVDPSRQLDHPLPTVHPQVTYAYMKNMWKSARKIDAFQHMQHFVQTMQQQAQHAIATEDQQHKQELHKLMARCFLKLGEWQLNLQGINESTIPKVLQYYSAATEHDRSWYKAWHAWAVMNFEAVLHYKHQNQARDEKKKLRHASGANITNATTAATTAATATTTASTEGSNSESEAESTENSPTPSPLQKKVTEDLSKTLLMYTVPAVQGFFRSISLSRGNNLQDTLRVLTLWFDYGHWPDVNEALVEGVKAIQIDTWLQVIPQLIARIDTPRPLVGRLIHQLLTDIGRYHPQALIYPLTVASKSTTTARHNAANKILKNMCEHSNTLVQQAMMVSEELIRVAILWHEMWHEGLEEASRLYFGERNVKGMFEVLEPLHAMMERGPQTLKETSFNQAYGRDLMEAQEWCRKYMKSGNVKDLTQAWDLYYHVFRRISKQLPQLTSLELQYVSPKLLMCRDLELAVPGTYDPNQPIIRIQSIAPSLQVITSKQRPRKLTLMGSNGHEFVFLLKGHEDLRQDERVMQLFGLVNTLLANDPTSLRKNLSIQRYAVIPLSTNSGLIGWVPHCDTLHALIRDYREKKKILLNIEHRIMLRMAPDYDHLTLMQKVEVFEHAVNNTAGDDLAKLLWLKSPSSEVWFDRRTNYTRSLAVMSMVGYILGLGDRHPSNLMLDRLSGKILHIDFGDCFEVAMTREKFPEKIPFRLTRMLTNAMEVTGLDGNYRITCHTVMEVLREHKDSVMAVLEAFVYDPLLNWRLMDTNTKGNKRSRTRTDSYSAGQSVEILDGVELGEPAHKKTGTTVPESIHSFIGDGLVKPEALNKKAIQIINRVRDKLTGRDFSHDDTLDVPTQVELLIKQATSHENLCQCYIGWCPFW
1.1 Materials and Instruments:
4-Hydroxyethylpiperazine ethanesulfonic acid (HEPES, Sigma, Cat# SH3375), ethylene glycol-bis-(2-aminoethylether)-tetraacetic acid (EGTA, Sigma, Cat# E3889), manganese chloride (MnCl2, Sigma, Cat# M1787), Tween-20 (Tween-20, Amresco), 1,4-dithiothreitol (DTT, Merck, CB233155),
(TR-FRET usually uses a lanthanide donor and a delayed reading to cut background.)

The test system of assay [2] is MV-4-11. Kind of assay: CTG cell survival assay, MV-4-11. It counts as cell-based. As to conditions: Homo sapiens, MV4-11, MV-4-11 cells. From the text: (§1) 2. CTG Cell Survival Assay:
(§2) ATP is necessarily produced during the metabolic activities of viable cells, and there is a linear relationship between the content of ATP and the number of viable cells. Cell viability assay by CTG chemiluminescence is a general method for detecting the number of viable cells in the culture cells based on this principle. The addition of the CellTiter-Glo (CTG) reagent may induce cell lysis and produce chemiluminescent signals directly proportional to the amount of ATP in the well-plate, and thereby the cell proliferation activity in the well-plate can be measured by the reading values from the chemiluminescence.
(§3) 2.1 Experimental Materials and Instruments:
2.1.1 Experimental Materials: compounds to be tested, cell basal culture medium, RPMI Medium 1640 (Invitrogen, Cat#11875-093), fetal calf serum (FBS): Hyclone FETAL BOVINE SERUM DEFINED (Invitrogen, Cat#SH30070.03), antibiotics: Penicilin Streptomycin (Invitrogen, Cat#15140-122), phosphate buffer (Corning Cellgro, Cat#R21-040-CV), cell digestive solution: 0.25% Trypsin-EDTA (Invitrogen, Cat#25200-056), CTG detection kit: Promega, Cat#G7571, flat-bottom 96-well black bottom plate: NUNC, Cat#165305, T25 culture flask: NUNC, Cat#156367, T75 culture flask: NUNC, Cat#156439
2.2 Experimental Instruments: Carbon Dioxide Incubator, SANYO-MCO-20AIC, Biosafe Cabinet: BSC-1360-LIIA2, Table-Top High-Speed Refrigerated Centrifuge: SorvallST 16R, Microplate Rapid Oscillator: QB-9001, M3 Reader: SpectraMax M3, Microscope: OLYMPUS-CKX41/CKX31.
2.3 Preparation of Solutions and Reagents: Formulation of cell growth medium: RPMI Medium 1640+10% FBS+antibiotics, others: trypsin digestive solution, phosphate buffer (PBS), DMSO, CTG detection kit.
2.4 Experimental Procedure: • 1.4.1 Cell Thawing: Cryogenic vials were removed from the liquid nitrogen container, directly immersed in a water bath at 37° C., and shaked from time to time to thaw. The cryogenic vials were removed from the water bath at 37° C., and transferred to the biosafe cabinet. Their lids were opened, and the cell suspensions were aspirated with pipettes, added to centrifuge tubes, and then added with more than 10 volumes of culture solution, mixed well; centrifuged for 5 min at 1000 rpm; the supernatant was discarded, and medium containing cell growth was added to resuspend cells. All cell suspensions were seeded to the T25 culture flasks and static cultured in an incubator at 37° C.; the culture solution were changed once on the next day, and continued to be cultured. • 2.4.2 Cell Passaging: After cells were grown to logarithmic phase and were 80%-90% confluent, cells were removed and placed in the biosafe cabinet, the old culture solution was discarded, and the cells were wetted and washed with PBS once or twice. An appropriate amount of 0.25% Trypsin-EDTA solution was added to the culture flasks. The flasks were placed in the carbon dioxide incubator at 37° C. for 2-5 min. An appropriate amount of cell growth medium containing 10% PBS was added to terminate the digestion, lightly swished, and transferred to the centrifuge tubes and centrifuged for 5 min at 1000 rpm. The cells were prepare (into cell suspensions for passaging and experimental use. • 2.4.3 Cell Plating • 2.4.3.1 A cell suspension was prepared: After cells were grown to logarithmic phase and were 80%-90% confluent, the cells were removed to the biosafe cabinet, and the old culture solution was discarded, then the cells were wetted and washed with PBS once or twice. An appropriate amount of 0.25% Trypsin-EDTA solution was added to the culture flask. The flask was placed in a carbon dioxide incubator at 37° C. for 2-5 min. An appropriate amount of the cell growth medium containing 10% PBS was added to terminate digestion, and was lightly swished. The solution was transferred to a centrifuge tube, centrifuged for 5 min at 1000 rpm, and counted. […]

Assay [3] concerns SK-BR3/BT474. Description: CTG cell survival assay, SK-BR3/BT474. It counts as cell-based. As to conditions: SK-BR3/BT474 cells.
Description: as §1, §2, §3
(§4) 2.4 Experimental Procedure: • 1.4.1 Cell Thawing: Cryogenic vials were removed from the liquid nitrogen container, directly immersed in a water bath at 37° C., and shaked from time to time to thaw. The cryogenic vials were removed from the water bath at 37° C., and transferred to the biosafe cabinet. Their lids were opened, and the cell suspensions were aspirated with pipettes, added to centrifuge tubes, and then added with more than 10 volumes of culture solution, mixed well; centrifuged for 5 min at 1000 rpm; the supernatant was discarded, and medium containing cell growth was added to resuspend cells. All cell suspensions were seeded to the T25 culture flasks and static cultured in an incubator at 37° C.; the culture solution were changed once on the next day, and continued to be cultured. • 2.4.2 Cell Passaging: After cells were grown to logarithmic phase and were 80%-90% confluent, cells were removed and placed in the biosafe cabinet, the old culture solution was discarded, and the cells were wetted and washed with PBS once or twice. An appropriate amount of 0.25% Trypsin-EDTA solution was added to the culture flasks. The flasks were placed in the carbon dioxide incubator at 37° C. for 2-5 min. An appropriate amount of cell growth medium containing 10% PBS was added to terminate the digestion, lightly swished, and transferred to the centrifuge tubes and centrifuged for 5 min at 1000 rpm. The cells were prepare (into cell suspensions for passaging and experimental use. • 2.4.3 Cell Plating • 2.4.3.1 A cell suspension was prepared: After cells were grown to logarithmic phase and were 80%-90% confluent, the cells were removed to the biosafe cabinet, and the old culture solution was discarded, then the cells were wetted and washed with PBS once or twice. An appropriate amount of 0.25% Trypsin-EDTA solution was added to the culture flask. The flask was placed in a carbon dioxide incubator at 37° C. for 2-5 min. An appropriate amount of the cell growth medium containing 10% PBS was added to terminate digestion, and was lightly swished. The solution was transferred to a centrifuge tube, centrifuged for 5 min at 1000 rpm, and counted. […] Secondly, 20 uM of the compound to be tested was diluted with the cell growth medium containing 0.2% DMSO in 3-fold dilution to obtain 9 concentrations, and there were 10 concentration gradients in total. • 2.4.4.3 Addition of the compounds to be tested: the prepared gradient dilution solutions of compounds to be tested were taken and added to the cell culture plate at 100 ul/well; at this point, the maximum concentration of compounds to be tested was 10 uM, and the concentration of DMSO was 0.1%.

The subject of assay [4] is PC-3. Description: CTG cell survival assay, PC-3. It counts as cell-based. As to conditions: Homo sapiens, PC-3 cells.
Description: as §1, §2, §3, §4

Structures are written as SMILES.

For `Cn1cc(-c2ccc(-c3ccc4ncc5c(c4n3)n(C3CCCN(S(C)(=O)=O)C3)c(=O)n5C)cn2)cn1` (stereo not shown) [Example 37, 3-methyl-8-(6-(1-methyl-1H-pyrazol-4-yl)pyridin-3-yl)-1-(1-(methanesulfonyl)piperidin-3-yl)-1H-imidazo[4,5-c][1,5]naphthyridin-2(3H)-one], the IC50 in assay [1] is under 10 nM. The EC50 in assay [2] and in assay [3] was under 50 nM in each case.

In the case of `Cn1cc(-c2ccc(-c3ccc4ncc5c(c4c3)n(C3CCCN(C(=O)c4nc[nH]n4)C3)c(=O)n5C)cn2)cn1` (stereo not shown) [Example 2, 1-(1-(1H-1,2,4-triazole-3-carbonyl)piperidin-3-yl)-3-methyl-8-(6-(1-methyl-1H-pyrazol-4-yl)pyridin-3-yl)-1H-imidazo[4,5-c]quinolin-2(3H)-one], in assay [1], the IC50 is 100 to 1000 nM.

On to `Cn1c(=O)n([C@H]2CC[C@@H](O)CC2)c2c3cc(-c4ccc(N)nc4)ccc3ncc21` [Example 26, 8-(6-aminopyridin-3-yl)1-((1s,4s)-4-hydroxycyclohexyl)-3-methyl-1H-imidazo[4,5-c]quinolin-2(3H)-one], for which the IC50 in assay [1] is under 10 nM. For the same compound, the EC50 in assay [2] is under 50 nM; in assay [3] it was under 200 nM.

Turning to `Cn1cc(-c2ccc(-c3ccc4ncc5c(c4c3)n(C3CCN(S(=O)(=O)c4ccc(Cl)cc4)C3)c(=O)n5C)cn2)cn1` (stereo not shown) [Example 13, 1-(1-((4-chlorphenyl)sulfonyl)pyrrolidin-3-yl)-3-methyl-8-(6-(1-methyl-1H-pyrazol-4-yl)pyridin-3-yl)-1H-imidazo[4,5-c]quinolin-2(3H)-one], the IC50 in assay [1] was in the range of 100 to 1000 nM. For the same compound, the EC50 in assay [4] was under 1000 nM; in assay [3], under 500 nM.

For `Cn1c(=O)n([C@H]2CCN(S(C)(=O)=O)C2)c2c3nc(-c4ccc(-c5ccccc5)nc4)ccc3ncc21` [Example 39, (S)-3-methyl-1-(1-(methanesulfonyl)pyrrolidin-3-yl)-8-(6-phenylpyridin-3-yl)-1H-imidazo[4,5-c][1,5]naphthyridin-2(3H)-one], the IC50 in assay [1] is under 10 nM. Further, in assay [4], it took 37 nM to reach a half-maximal effect (EC50).

On to `Cn1cc(-c2ccc(-c3ccc4ncc5c(c4c3)n(C3CCN(S(N)(=O)=O)C3)c(=O)n5C)cn2)cn1` (stereo not shown) [Example 15, 3-(3-methyl-8-(6-(1-methyl-1H-pyrazol-4-yl)pyridin-3-yl)-2-oxo-2,3-dihydro-1H-imidazo[4,5-c]quinolin-1-yl)pyrrolidine-1-sulfamide], for which, in assay [1], the half-inhibitory concentration (IC50) was 100 to 1000 nM. The results for the EC50 in assay [4] and in assay [3] were under 500 nM and under 1000 nM, respectively.

With `Cn1cc(-c2ccc(-c3ccc4ncc5c(c4c3)n(C3CCN(C(=O)C(F)(F)F)C3)c(=O)n5C)cn2)cn1` (stereo not shown) [Example 16, 3-methyl-8-(6-(1-methyl-1H-pyrazol-4-yl)pyridin-3-yl)-1-(1-(2,2,2-trifluoroacetyl)pyrrolidin-3-yl)-1H-imidazo[4,5-c]quinolin-2(3H)-one], the IC50 in assay [1] lay in the range of 100 to 1000 nM. In assay [4], this compound displayed an EC50 of under 1000 nM.

With `CC(=O)N1CCC(n2c(=O)n(C)c3cnc4ccc(-c5ccc(-c6cnn(C)c6)nc5)cc4c32)C1` (stereo not shown) [Example 11, 1-(1-acetylpyrrolidin-3-yl)-3-methyl-8-(6-(1-methyl-1H-pyrazol-4-yl)pyridin-3-yl)-1H-imidazo[4,5-c]quinolin-2(3H)-one], in assay [1], the IC50 was in the range of 100 to 1000 nM. Moreover, the EC50 in assay [4] and in assay [3] was under 1000 nM in each case.

With `Cn1cc(-c2ccc(-c3ccc4ncc5c(c4c3)n(C3CCN(C(=O)CO)C3)c(=O)n5C)cn2)cn1` (stereo not shown) [Example 7, 1-(1-(2-hydroxyacetyl)pyrrolidin-3-yl)-3-methyl-8-(6-(1-methyl-1H-pyrazol-4-yl)pyridin-3-yl)-1H-imidazo[4,5-c]quinolin-2(3H)-one], the IC50 in assay [1] was 100 to 1000 nM. Besides, the EC50 in assay [4] and in assay [3] was under 1000 nM each time.

Consider `Cc1ccc(S(=O)(=O)N2CCC(n3c(=O)n(C)c4cnc5ccc(-c6ccc(-c7cnn(C)c7)nc6)cc5c43)C2)cc1` (stereo not shown) [Example 14, 3-methyl-8-(6-(1-methyl-1H-pyrazol-4-yl)pyridin-3-yl)-1-(1-p-toluenesulfonylpyrrolidin-3-yl)-1H-imidazo[4,5-c]quinolin-2(3H)-one], for which the IC50 in assay [1] fell in the range of 100 to 1000 nM. Further, the results for the EC50 in assay [4] and in assay [3] were under 1000 nM and under 200 nM, respectively.

Turning to `Cn1cc(-c2ccc(-c3ccc4ncc5c(c4n3)n([C@H]3CCN(S(C)(=O)=O)C3)c(=O)n5C)cn2)cn1` [Example 38, (S)-3-methyl-8-(6-(1-methyl-1H-pyrazol-4-yl)pyridin-3-yl)-1-(1-(methanesulfonyl)pyrrolidin-3-yl)-1H-imidazol-[4,5-c][1,5]naphthyridin-2(3H)-one], the IC50 in assay [1] was under 10 nM. The compound further came in with an EC50 in assay [4] of 21 nM.

By IC50 is commonly meant the concentration that gives 50% inhibition. One may read the EC50 as the concentration at which the effect is half-maximal.
